Test results published in the NIST ThermoML archive (doi:10.1021/je800925v).
± gives the expanded uncertainty stated by the source.

Legend:
[1] = Liquid
[2] = xn = mol fraction of the nth substance listed; conditions: Liquid, x1 = 1

Row | SMILES | mass density ([1]; 293.15 K) | viscosity ([1]; 293.15 K) | mass density ([1]; 298.15 K) | viscosity ([1]; 298.15 K) | mass density ([2]; 293.15 K) | viscosity ([2]; 293.15 K) | mass density ([2]; 298.15 K) | viscosity ([2]; 298.15 K)
1 | CCO [ethanol] | 790.2 ± 2.2 kg/m3 | 1.21 ± 0.062 mPa·s | 785.9 ± 2.2 kg/m3 | 1.099 ± 0.059 mPa·s | – | – | – | –
2 | CCO [ethanol] + CCCCCC | – | – | – | – | 790.2 ± 2.2 kg/m3 | 1.21 ± 0.062 mPa·s | 785.9 ± 2.2 kg/m3 | 1.099 ± 0.059 mPa·s
3 | CCCCCC [hexane] | 659.8 ± 2.8 kg/m3 | 0.2979 ± 0.038 mPa·s | 655.3 ± 2.8 kg/m3 | 0.2865 ± 0.038 mPa·s | – | – | – | –

Results, then the compound that gave them:

Row | mass density ([1]; 293.15 K) | viscosity ([1]; 293.15 K) | mass density ([1]; 298.15 K) | viscosity ([1]; 298.15 K) | mass density ([2]; 293.15 K) | viscosity ([2]; 293.15 K) | mass density ([2]; 298.15 K) | viscosity ([2]; 298.15 K) | SMILES
4 | 731 ± 2.4 kg/m3 | 0.9133 ± 0.028 mPa·s | 727.2 ± 2.4 kg/m3 | 0.8509 ± 0.027 mPa·s | – | – | – | – | CCCCCCCCCC [decane]
5 | – | – | – | – | 790.2 ± 7.5 kg/m3 | – | 785.9 ± 7.6 kg/m3 | – | CCO [ethanol] + CCCCCCCC
6 | 705.6 ± 9.5 kg/m3 | 0.5374 ± 0.023 mPa·s | 701.6 ± 9.6 kg/m3 | 0.5087 ± 0.022 mPa·s | – | – | – | – | CCCCCCCC [octane]
